We go through one compound from US20170151351A1, “Gd-ENCAPSULATED CARBON DOTS AND METHODS OF MAKING AND USING THEREOF” (University of Georgia Research Foundation, Inc., priority 2015, published 2017).

Each structure is given as a SMILES string.

The conditions of data set [1]: at 7T, literature comparison; cited from earlier work.
Data set [2] relates to U87MG (human glioma) cells. Briefly: MTT cytotoxicity assay. Type of data set: cell-based. Conditions: in the presence of 2.5 mM Ca(II). The procedure:
The cytotoxicity of Gd@C-dots was evaluated with U87MG (human glioma) cells using 3-(4, 5-dimethylthiazolyl-2)-2,5-diphenyltetrazolium bromide (MTT) assays. 2.5 mM Ca(II) was added into the incubation medium; while posing no direct toxicities to cells, such a high concentration of calcium can cause transmetallation to Gd complexes, leading to liberation of free Gd (Corot, C., et al., J. Magn. Reson. Imaging 1998, 8:695). […] The low toxicity was again attributed to the great resistance of Gd@C-dots against biodegradation and transmetallation.
c(RGDyK) affords strong binding affinity toward integrin αvβ3, a cancer biomarker that is seen overexpressed on neoplastic blood vessels and in many types of cancer cells. So the resulting conjugates (hereafter designated as RGD-Gd@C-dots) and unmodified Gd@C-dots were incubated with U87MG cells and imaged under a fluorescence microscope (ex/em: 360/460 nm). Specifically, U87MG cells were cultured in DMEM supplemented with 2 mM L-glutamine, 1.5 g/L sodium bicarbonate, 0.1 mM nonessential amino acids, 1.0 mM sodium pyruvate, and 10% fetal bovine serum at 37° C. in a humidified atmosphere with 5% CO2. 10^5 U87MG cells were seeded in 96-well plates (1×10^4 cells per well) 24 h prior to the experiments. […] The slides were mounted and imaged under an Olympus X71 fluorescence microscope.
(Tetrazolium dyes change colour on reduction, which living cells bring about.)

Data set [3] has as its system U87MG (human glioma) cells. The settings on record: no added Ca(II); cited from earlier work.

Consider `O=C([O-])CN(CCN(CC(=O)[O-])CC(=O)O)CCN(CC(=O)[O-])CC(=O)O.[Gd+3]` [Gd-DTPA], for which the r1 relaxivity in data set [1] is 3.1 mM⁻¹ s⁻¹. In data set [2], the “IC50 (cytotoxicity)” value was found to be 33.1 µg/mL. Moreover, the “toxicity under normal cell culture conditions” value in data set [3] is “no toxicities”.
